Measurements: ChEMBL document CHEMBL5385935, “Structural Characterization and Rat Aortic Vascular Reactivity of Bradykinin-Potentiating Peptides (BPPs) from the Snake Venom of Bothrops moojeni from Delta do Parnaíba Region, Brazil” (2024)
Non-standard residues stand in square brackets, D forms with d. Residues, ends and D or L forms follow the SMILES beside them. pGlu = O=C1CC[C@@H](C(=O)O)N1

Key:
Thoracic aorta [1] = test: Vasorelaxant activity in Wistar rat endothelium-functional thoracic aorta assessed as reduction in phenylephrine-induced isometric contraction by measuring maximal efficacy relative to control
Thoracic aorta [2] = test: Vasorelaxant activity in Wistar rat endothelium-functional thoracic aorta assessed as reduction in phenylephrine-induced isometric contraction; type: tissue-based

| Compound | Emax (Thoracic aorta [1]) [%] | Activity (Thoracic aorta [2]) |
| --- | --- | --- |
| CC[C@H](C)[C@H](NC(=O)[C@H](CCC(=O)O)NC(=O)[C@@H]1CCCN1C(=O)CNC(=O)[C@@H]1CCCN1C(=O)[C@H](CCCNC(=N)N)NC(=O)[C@@H]1CCCN1C(=O)[C@H](Cc1c[nH]c2ccccc12)NC(=O)CNC(=O)CNC(=O)[C@@H]1CCC(=O)N1)C(=O)N1CCC[C@H]1C(=O)N1CCC[C@H]1C(=O)O ([pGlu]GGWPRPGPEIPP-OH) | 18.3 | Dose-Dependent Effect |
| CC[C@H](C)[C@H](NC(=O)[C@H](CCC(=O)O)NC(=O)[C@@H]1CCCN1C(=O)CNC(=O)[C@@H]1CCCN1C(=O)[C@H](CCCNC(=N)N)NC(=O)[C@@H]1CCCN1C(=O)[C@H](Cc1c[nH]c2ccccc12)NC(=O)[C@H](CCCCN)NC(=O)[C@@H]1CCC(=O)N1)C(=O)N1CCC[C@H]1C(=O)N1CCC[C@H]1C(=O)O ([pGlu]KWPRPGPEIPP-OH) | 32.8 | Dose-Dependent Effect |
| CC(C)[C@H](NC(=O)[C@H](CCCCN)NC(=O)[C@@H]1CCCN1C(=O)CNC(=O)[C@@H]1CCCN1C(=O)[C@H](Cc1c[nH]c2ccccc12)NC(=O)[C@H](CCCCN)NC(=O)[C@@H]1CCC(=O)N1)C(=O)N1CCC[C@H]1C(=O)N1CCC[C@H]1C(=O)O ([pGlu]KWPGPKVPP-OH) | 37.5 | Dose-Dependent Effect |
